Data taken from patent US9404082B2, “Method for production of eosinophil from pluripotent stem cell” (KYOTO UNIVERSITY, priority 2010, dated 2016).

Tested on: ES cell (H1)-derived eosinophils
Experiment: Measurement of migratory capacity (Transwell)
Assay type: cell-based, human
Settings: 1640 medium with 5% FBS, 1 to 2 hours, IL-5 0.2-25 ng/ml, Eotaxin 0.4-250 nM, fMLP 10 pM-100 nM, FIG. 3
Method: Eosinophils established from ES cells (H1) by the above method were transferred to Transwell, and 1640 medium supplemented with 5% FBS was added thereto. IL-5 (0.2 ng/ml to 25 ng/ml), Eotaxin (0.4 nM to 250 nM) and fMLP (10 pM to 100 nM) at various concentrations were added thereto, and culture was performed for 1 to 2 hours. Thereafter, the number of cells migrated from the top layer to the bottom layer was measured (FIG. 3).

Substance | number of cells migrated from the top layer to the bottom layer
fMLP | migrate in response to the respective types of stimulation
IL-5: cytokine used to stimulate eosinophil migration | migrate in response to the respective types of stimulation
Eotaxin: cytokine used to stimulate eosinophil migration | migrate in response to the respective types of stimulation
